How the values were obtained:
healthy keratinocytes = test: CyQUANT proliferation assay, healthy keratinocytes; assay type: cell-based, human; conditions: healthy KC; PD98059 20 μM or S3I-201 10 μM, 48 h
Description: (§1) Figure 6 IL-22-induced proliferation and migration of healthy and transformed keratinocytes is counteracted by KIR-ESS peptide (A) Healthy KC, CAL27 and CAL33 cultures were plated in 96-well plates in quadruplicate for each condition. After 1 day, cells were pre-treated or not with Ctrl1 or KIR-ESS peptides (40 μM), or S31-201 ([…]) and PD98059 ([…]) chemical inhibitors, and, then, stimulated or not with 50 ng/ml of IL-22. Data relative to 48-h treatment are shown and expressed as the values of fluorescence intensity obtained from untreated and IL-22-treated ± SD. Three independent experiments were performed. *p < 0.01. […] (C) Cell-free area was measured and indicated as residual wound. […]
(§2) SOCS1- and SOCS3 stably transfected keratinocytes or cultured keratinocytes previously transfected with SOCS3 or control siRNA were seeded in 96-well plates (1.5–2.0 × 10^4 cells/well), and, the day after, starved in medium without serum. At 60% confluence, cells were treated with 75 ng/ml of IL-22 for 3 days, stained with 0.5% crystal violet (Bio-Rad, Hercules, CA, USA), and then analyzed in an ELISA reader (model 3550 UV ELISA reader; Bio-Rad). […] After 1-h pre-incubation, cells were treated with IL-22 or left unstimulated, cultured for other 24, 48 and 72 h, and the number of viable cells determined by CyQUANT Cell Proliferation Assay, accordingly to manufacture's protocol. […]

CAL33 cells = test: Scratch assay (migration), CAL33; assay type: cell-based; conditions: CAL33; 40 μM peptide, PD98059 20 μM or S3I-201 10 μM; IL-22 50 ng/ml, 24 h
Description: (§3) Figure 6 IL-22-induced proliferation and migration of healthy and transformed keratinocytes is counteracted by KIR-ESS peptide (A) Healthy KC, CAL27 and CAL33 cultures were plated in 96-well plates in quadruplicate for each condition. After 1 day, cells were pre-treated or not with Ctrl1 or KIR-ESS peptides (40 μM), or S31-201 ([…]) and PD98059 ([…]) chemical inhibitors, and, then, stimulated or not with 50 ng/ml of IL-22. Data relative to 48-h treatment are shown and expressed as the values of fluorescence intensity obtained from untreated and IL-22-treated ± SD. Three independent experiments were performed. *p < 0.01. (B) Scratch assays were carried out on healthy or SCC-lines, pre-incubated with mitomycin C (5 mg/ml), pre-treated with Ctrl1 or KIR-ESS peptides (40 μM), or S31-201 ([…]) or PD98059 ([…]) chemical inhibitors, and, then, stimulated or not with IL-22 for 24 h. Microscopic images were taken immediately after and 24 h after wound induction on confluent cell layers. Initial scratches (0 h) are dashed blank. (C) Cell-free area was measured and indicated as residual wound. Data are reported as healed wound (gray area of bars) vs residual wound (white area of bars) which a value of 100% was given. *p < 0.01.
(§4) Cultured keratinocytes and SCC cell lines were grown at 100% confluence on type IV collagen (20 μg/ml), and then incubated with mitomycin C (5 mg/ml) (Sigma-Aldrich) for 1 h. Cell monolayers were scratched with the tip of a p-200 pipette to create uniform cell-free zones, and, then, pre-treated with appropriate concentrations of SOCS3 mimetic or control peptides, or with 10 μM STAT3 (S3I-201, Santa Cruz) and 20 μM Erk1/2 (PD98059, Calbiochem) inhibitors for 1 h, before treating by 50 ng/ml of IL-22. Microscopy pictures were taken with a digital camera at different time points following IL-22 treatment. The residual gap between migrating keratinocytes was measured with a computer-assisted image analysis system (Axiovision; Zeiss, Oberkochen, Germany), and expressed as percentage of the initial scratched area.

[1] = system: SCC-cell lines (CAL27 and CAL33); test: CyQUANT proliferation assay, SCC-cell lines; assay type: cell-based; conditions: PD98059 20 μM or S3I-201 10 μM, 48 h
Description: as §1, §2

CAL27 cells = test: Scratch assay (migration), CAL27; assay type: cell-based; conditions: 24 h
Description: as §3, §4

[2] = system: SOCS3 expression in SCC and BCC skin tumor lines; test: SOCS3 mRNA and protein induction in SCC or BCC tumor cells; assay type: cell-based; conditions: SCC (CAL27, CAL33) and BCC (M77015) lines, 3 h mRNA, 6 h protein
Description: (§5) Figure 4 SOCS3 and SOCS1 are poorly expressed in the epidermis of NMSC lesions and are not induced in transformed keratinocytes by IL-22 (A) Immunohistochemistry for SOCS3 and SOCS1 (red staining) was performed respectively on frozen or paraffin-embedded sections from biopsies of healthy skin (i), NLS (ii, iii) and LS (iv, v) areas of BCC and SCC, specimens. Psoriatic skin biopsies were also analyzed (vi). Sections were counterstained with Mayer's H&E and were visually evaluated by an pathologist experienced in dermatology. One out of four representative staining is shown. Scale bars, 50 mm. (B) Graphs show SOCS3 and SOCS1 mRNA levels which were detected by real-time PCR analysis in cultured SCC (CAL27 and CAL33) and BCC (M77015) skin tumor lines left untreated or stimulated with IL-22 or IFN-γ for 3 h and normalized for β-actin mRNA expression levels. All data were obtained from three independent experiments. […] SOCS1 was detected by IP using a specific anti-SOCS1 Ab, whereas SOCS3 by WB with an anti-SOCS3 Ab. […] Densitometric intensity (D.I.) of SOCS1 or SOCS3/β-actin was calculated from three independent experiments and numerically expressed as D. I. Ratio. *p < 0.01; **p < 0.05. […] SOCS3 and phospho-Tyr STAT3 levels were detected by WB and normalized to β-actin levels. […]

[3] = system: SOCS3 expression in healthy keratinocytes; test: SOCS3 mRNA and protein induction in healthy keratinocytes; assay type: cell-based, human; conditions: healthy keratinocytes, 3 h mRNA, 6 h protein
Description: Figure 1 IL-22 induces SOCS3, which limits STAT3 and Erk1/2 activation (A) Keratinocyte cultures (n = 3) were stimulated with IL-22 or not for 10 min and protein lysates were subjected to immunoprecipitation and WB analyses for basal and phospho-IL-22R1, Tyk2 or Jak1. (B) WB of time-course experiments were performed on keratinocyte cultures (n = 3) to evaluate basal STAT3, Erk1/2 and MEK or phosphor-STAT3 (Tyr705 and Ser 727), phosphor-Erk1/2 and phospho-MEK. Anti-β-actin Ab was used to normalize sample loading. (C) SOCS mRNA and protein levels were detected by real-time PCR or WB analyses in cultured keratinocytes prepared from healthy skin (n = 3) left untreated or stimulated with IL-22 for the indicated time periods and normalized with β-actin values. (D) HaCaT cells stably transfected with myc-tagged SOCS1 (n = 4), SOCS2 (n = 2) and SOCS3 (n = 4) genes or control plasmids (mock, n = 3) were left untreated or stimulated with IL-22 for 15 min or 3 h and lysates subjected to WB with anti-phospho STAT3 (Tyr705), -phospho STAT3 (Ser727), -STAT3, -phospho Erk, -Erk, -c-myc and -β-actin Abs, as indicated. (E) Keratinocyte cultures were transiently transfected with siRNA specific for SOCS3 or control siRNA (NC). After 48-h transfection, cells were stimulated with IL-22 or not for the indicated time periods. In RNA interference experiments, data were obtained by three independent experiments, and SOCS3 depletion was assessed by real-time PCR and WB. […] Data are expressed as ratio of densitometric intensity (D. I.) of phosphorylated and unphosphorylated STAT3 and Erk1/2 proteins. p < 0.05 (*) values were considered significant.
as §5, with “One out of four representative staining is shown. Scale bars, 50 mm.” left out, “levels.” for “levels. All data were obtained from three independent experiments.”

[4] = system: SOCS1 expression in keratinocytes and SCC/BCC lines; test: SOCS1 mRNA and protein induction; assay type: cell-based; conditions: all cell lines, 3 h mRNA, 6 h protein
Description: as §5

Cc1ccc(S(=O)(=O)OCC(=O)Nc2ccc(C(=O)O)c(O)c2)cc1 [S3I-201]
proliferation (effect relative to KIR-ESS) (healthy keratinocytes): KIR-ESS effect was similar to that observed in all healthy and transformed keratinocyte cultures
wound closure, IL-22-treated (CAL33 cells): effect similar to those obtained with the chemical Erk1/2 and STAT3 inhibitors
proliferation (effect relative to KIR-ESS) [1]: KIR-ESS effect was similar to that observed in all healthy and transformed keratinocyte cultures
wound closure / migration, resting cells (CAL27 cells; CAL27, without IL-22, 40 μM peptide or S31-201 10 μM): efficacious in inhibiting migration of CAL27 cells
wound closure, IL-22-treated (CAL27 cells; CAL27, 40 μM peptide, PD98059 20 μM or S3I-201 10 μM, IL-22 50 ng/ml): effect similar to those obtained with the chemical Erk1/2 and STAT3 inhibitors

IFN-γ: cytokine stimulus, R&D Systems
SOCS3 mRNA and protein expression [2]: significantly up-regulated by IFN-γ in all cell lines
SOCS3 mRNA and protein expression [3]: significantly up-regulated by IFN-γ in all cell lines
SOCS1 mRNA and protein expression [4]: significantly up-regulated by IFN-γ in all cell lines both at transcriptional and protein level, with the exception of SOCS1 protein in the BCC lines

— PMC5421877, “SOCS3 inhibits the pathological effects of IL-22 in non-melanoma skin tumor-derived keratinocytes” (Oncotarget, 2017)
